Laboratory results published in the supplement of paper PMC10307832.

What was measured:
Assay in all cases: relative viability (nuclei count vs DMSO), 5 days (fraction); higher = more cells survive
CUDC-101 + Pemetrexed = compound: C#Cc1cccc(Nc2ncnc3cc(OC)c(OCCCCCCC(=O)NO)cc23)c1 [CUDC-101] + Nc1nc2[nH]cc(CCc3ccc(C(=O)N[C@@H](CCC(=O)O)C(=O)O)cc3)c2c(=O)[nH]1 [Pemetrexed] (partner 0.2 µM)
In short: (§1)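 Lung cancer cell lines were seeded in 1536-well plates and dosed by pin tool the next day, with either a single drug or a fixed anchor-drug dose combined with five library-drug doses (not always all listed) spaced in √10 steps. Five days later, one step fixed the cells and stained their nuclei (final 0.05% Triton X-100, 1% formaldehyde, 1 ug/ml Hoechst), and nuclei were counted on 4× images. Relative viability is the nuclei count in treated wells divided by the count in vehicle wells, and each value is the median of duplicate plates.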

[1] = compound: C1=CC=C2C(=C1)N=C(S2)C(C#N)C3=NC(=NC=C3)NCCC4=CN=CC=C4 + Nc1nc2[nH]cc(CCc3ccc(C(=O)N[C@@H](CCC(=O)O)C(=O)O)cc3)c2c(=O)[nH]1 [Pemetrexed] (partner 0.2 µM)
In short: as §1

Vandetanib + Tozasertib = compound: COc1cc2/c(=N/c3ccc(Br)cc3F)nc[nH]c2cc1OCC1CCN(C)CC1 [Vandetanib] + Cc1cc(Nc2cc(N3CCN(C)CC3)nc(Sc3ccc(NC(=O)C4CC4)cc3)n2)n[nH]1 [Tozasertib] (partner 0.1 µM)
In short: as §1

[2] = compound: C1=CC=C2C(=C1)N=C(S2)C(C#N)C3=NC(=NC=C3)NCCC4=CN=CC=C4 + COc1cccc2cc(-c3nc([C@H]4CC[C@H](C(=O)O)CC4)n4ncnc(N)c34)[nH]c12 [OSI-027] (partner 0.5 µM)
In short: as §1

Cell Line	relative viability (CUDC-101 + Pemetrexed; first compound 0.01 µM)	relative viability (CUDC-101 + Pemetrexed; first compound 0.03162 µM)	relative viability (CUDC-101 + Pemetrexed; first compound 0.1 µM)	relative viability (CUDC-101 + Pemetrexed; first compound 0.3162 µM)	relative viability (CUDC-101 + Pemetrexed; first compound 1 µM)	relative viability ([1]; first compound 0.005 µM)	relative viability ([1]; first compound 0.01581 µM)	relative viability ([1]; first compound 0.05 µM)	relative viability ([1]; first compound 0.1581 µM)	relative viability ([1]; first compound 0.5 µM)	relative viability (Vandetanib + Tozasertib; first compound 0.02 µM)	relative viability (Vandetanib + Tozasertib; first compound 0.06325 µM)	relative viability (Vandetanib + Tozasertib; first compound 0.2 µM)	relative viability (Vandetanib + Tozasertib; first compound 0.6325 µM)	relative viability (Vandetanib + Tozasertib; first compound 2 µM)	relative viability ([2]; first compound 0.005 µM)	relative viability ([2]; first compound 0.01581 µM)	relative viability ([2]; first compound 0.05 µM)	relative viability ([2]; first compound 0.1581 µM)	relative viability ([2]; first compound 0.5 µM)
HCC-827	0.237	0.241	0.163	0.137	0.138	0.238	0.239	0.25	0.264	0.259	0.442	0.419	0.415	0.243	0.135	0.617	1.11	0.854	0.978	0.783
ChaGo-K-1	0.259	0.246	0.259	0.256	0.256	0.249	0.263	0.293	0.255	0.256	0.2	0.239	0.248	0.212	0.215		0.491	0.616	0.587	0.452
LXF-289	0.881	0.888	0.873	0.904	0.805	0.832	0.979	0.876	0.912	0.857	0.242	0.241	0.215	0.176	0.193	0.515	0.863	0.797	0.846	0.589
NCI-H2342	0.842	0.757	0.76	0.819	0.742	0.823	0.716	0.697	0.85	0.81	0.592	0.552	0.463	0.461	0.493	0.532	0.64	0.569	0.671	0.578
HOP-62	0.295	0.355	0.346	0.349	0.311	0.344	0.337	0.33	0.345	0.351	0.42	0.379	0.191	0.384	0.368	0.669	0.828	0.762	0.989	0.793
LCLC-103H	0.472	0.537	0.486	0.456	0.429	0.497	0.502	0.458	0.461	0.468	0.613	0.443	0.548	0.481	0.555	0.387	0.521	0.41	0.505	0.397
LOU-NH91	0.411	0.414	0.421	0.315	0.341	0.403	0.429	0.418	0.375	0.441	0.735	0.635	0.61	0.543	0.526	0.673	0.689	0.703	0.733	0.729
NCI-H1915	0.495	0.45	0.45	0.497	0.455		0.506	0.434	0.563	0.481	0.424	0.422	0.438	0.419	0.412	0.623	0.583	0.619	0.671	0.584
NCI-H1395	0.856	0.91	0.943	0.877	0.676	0.71		0.949	1.13	0.952	0.752	0.753	0.845	0.837	0.723	0.606	0.515	0.569	0.843	0.658
COR-L23	0.184	0.196	0.2	0.186	0.175	0.211	0.207	0.187	0.206	0.17	0.189	0.241	0.218	0.223	0.222	0.369	0.839	0.716	0.985	0.511
NCI-H1734	0.414	0.407	0.392	0.465	0.39	0.412	0.405	0.416	0.434	0.418	0.24	0.289	0.14	0.216	0.261		0.571	0.546	0.669	0.556
NCI-H2405	1.07	1	1.05	1.17	0.967	1.14	0.998	1.07	1.1	0.98	0.754	0.716	0.738	0.685	0.714	0.666	0.673	0.614	0.695	0.645
NCI-H2087	0.681	0.699	0.648	0.605	0.678	0.616	0.661	0.634	0.645	0.645	0.252	0.266	0.0945	0.278	0.262	0.557	0.629	0.495	0.548	0.483
NCI-H1793	0.75	0.777	0.663	0.889	0.494		0.799	0.851	1.07	1.1	0.335	0.351	0.195	0.341	0.242	0.276	0.303	0.215	0.261	0.245
NCI-H2085	0.779	0.665	0.89	0.959	0.63	0.763	0.785	0.843	0.851	0.89	0.793	0.755	0.472	0.774	0.725	0.675	0.738	0.57	0.931	0.663
NCI-H358	0.181	0.187	0.166	0.161	0.154	0.265	0.173	0.169	0.165	0.188	0.111	0.106	0.104	0.0913	0.102	0.726	0.749	0.805	0.913	0.739
